This is an account of results in article PMC10620162, “Structure—yeast α-glucosidase inhibitory activity relationship of 9-O-berberrubine carboxylates” (Scientific Reports, 2023).

In this test the target is T1, yeast α-glucosidase (Saccharomyces cerevisiae, UniProt P53341).
T1 construct: purchased Sigma Aldrich
The experiment in a line: biochemical. To be noted: for inhibition at 50 µM: read-out: Inhibition at 50 μM (%), 50 μM. As to the method:
Berberrubine derivatives will be assayed for yeast α-glucosidase inhibitory activity. The protocol described by Ramadhan et al. will be used[37]. Briefly, yeast α-glucosidase (0.1 U/mL) and substrate (1 mM p-nitrophenyl-α-D-glucopyranoside) were dissolved in 0.1 M phosphate buffer (pH 6.9). A 10 μL test sample was pre-incubated with α-glucosidase (40 μL) at 37 °C for 10 min. A substrate solution (50 μL) was then added to the reaction mixture and incubated at 37 °C for an additional 20 min, and terminated by adding 1 M Na2CO3 solution (100 μL). […] The percentage inhibition of activity was calculated as follows: % Inhibition = [(A0 − A1)/A0] × 100, where: A0 is the absorbance without the sample; A1 is the absorbance with the sample. The IC50 value was deduced from the plot of % inhibition versus the concentration of the test sample.

Where two headings read alike, the source gives them in different places. Where only a bound is given, the exact number is not on record here.

T1 sequence (P53341 whole entry): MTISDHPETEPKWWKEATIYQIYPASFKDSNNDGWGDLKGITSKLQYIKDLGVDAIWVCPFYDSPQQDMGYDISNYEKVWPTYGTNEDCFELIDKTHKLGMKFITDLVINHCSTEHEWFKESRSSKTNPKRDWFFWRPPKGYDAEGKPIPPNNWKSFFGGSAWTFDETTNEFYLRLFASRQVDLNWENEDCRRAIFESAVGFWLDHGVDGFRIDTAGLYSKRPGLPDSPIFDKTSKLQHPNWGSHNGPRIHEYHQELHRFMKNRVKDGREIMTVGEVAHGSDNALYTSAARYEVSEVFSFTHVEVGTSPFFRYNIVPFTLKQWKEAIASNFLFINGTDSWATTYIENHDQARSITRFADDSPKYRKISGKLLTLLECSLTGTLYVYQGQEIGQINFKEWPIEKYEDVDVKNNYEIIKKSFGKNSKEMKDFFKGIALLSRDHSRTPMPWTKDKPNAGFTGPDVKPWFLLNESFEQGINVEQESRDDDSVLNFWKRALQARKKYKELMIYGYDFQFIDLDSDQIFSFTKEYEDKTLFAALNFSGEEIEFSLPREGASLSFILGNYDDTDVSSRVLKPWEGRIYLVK

Regarding `COc1ccc2cc3[n+](cc2c1O)CCc1cc2c(cc1-3)OCO2` [BBRB, 9-hydroxy-10-methoxy-5,6-dihydro-[1,3]dioxolo[4,5-g]isoquinolino[3,2-a]isoquinolin-7-ium chloride, reference compound], the inhibition (as a rule, the share of the control response that was lost under treatment) at 50 µM is less than 0%.
Turning to `COc1ccc2cc3[n+](cc2c1OC(=O)c1ccccc1)CCc1cc2c(cc1-3)OCO2.[Cl-]` [Compound 1, 9-(benzoyloxy)-10-methoxy-5,6-dihydro-[1,3]dioxolo[4,5-g]isoquinolino[3,2-a]isoquinolin-7-ium chloride], the half-maximal inhibitory concentration (IC50) – broadly, the concentration needed to halve the response being measured – stood at 25.3 ± 2.63 µM and the inhibition at 50 µM was 58%. In addition, under “50 μM”, the Inhibition (in general, the drop in the measured response relative to a control, in per cent) at 50 μM (%) is on record as 57.67%.
`COc1ccccc1C(=O)Oc1c(OC)ccc2cc3[n+](cc12)CCc1cc2c(cc1-3)OCO2` [Compound 2, 10-methoxy-9-((2-methoxybenzoyl)oxy)-5,6-dihydro-[1,3]dioxolo[4,5-g]isoquinolino[3,2-a]isoquinolin-7-ium chloride]: the midpoint of inhibition, the IC50, lay at 19.5 ± 1.62 µM and the inhibition at 50 µM stood at 79.1%.
The like results for `COc1cccc(C(=O)Oc2c(OC)ccc3cc4[n+](cc23)CCc2cc3c(cc2-4)OCO3)c1` [Compound 3, 10-methoxy-9-((3-methoxybenzoyl)oxy)-5,6-dihydro-[1,3]dioxolo[4,5-g]isoquinolino[3,2-a]isoquinolin-7-ium chloride] were, in that order, 11.6 ± 1.19 µM and 89.7%.
`COc1ccc(C(=O)Oc2c(OC)ccc3cc4[n+](cc23)CCc2cc3c(cc2-4)OCO3)cc1` [Compound 4, 10-methoxy-9-((4-methoxybenzoyl)oxy)-5,6-dihydro-[1,3]dioxolo[4,5-g]isoquinolino[3,2-a]isoquinolin-7-ium chloride]: the IC50 is 18.4 ± 1.31 µM and the inhibition at 50 µM is 80%.
Take `COc1ccc2cc3[n+](cc2c1OC(=O)c1cccc(O)c1)CCc1cc2c(cc1-3)OCO2` [Compound 5, 9-((3-hydroxybenzoyl)oxy)-10-methoxy-5,6-dihydro-[1,3]dioxolo[4,5-g]isoquinolino[3,2-a]isoquinolin-7-ium chloride]: the inhibition at 50 µM stood at 98.1%. For the same compound, the half-maximal inhibitory concentration (IC50) (read-out: IC50) came out at 7.51 ± 0.42 µM.
As for `COc1ccc(C(=O)Oc2c(OC)ccc3cc4[n+](cc23)CCc2cc3c(cc2-4)OCO3)cc1OC` [Compound 6, 9-((3,4-dimethoxybenzoyl)oxy)-10-methoxy-5,6-dihydro-[1,3]dioxolo[4,5-g]isoquinolino[3,2-a]isoquinolin-7-ium chloride], the midpoint of inhibition, the IC50, lay at 19.1 ± 1.01 µM and the inhibition at 50 µM turned out to be 73.9%.
In the case of `COc1ccc2cc3[n+](cc2c1OC(=O)c1ccc2c(c1)OCO2)CCc1cc2c(cc1-3)OCO2` [Compound 7, 9-((benzo[d][1,3]dioxole-5-carbonyl)oxy)-10-methoxy-5,6-dihydro-[1,3]dioxolo[4,5-g]isoquinolino[3,2-a]isoquinolin-7-ium chloride], the inhibition at 50 µM amounted to 99.7%. The 50% inhibitory concentration (IC50) (read-out: IC50) stood at 6.44 ± 0.5 µM.
As to `COc1cc(C(=O)Oc2c(OC)ccc3cc4[n+](cc23)CCc2cc3c(cc2-4)OCO3)cc(OC)c1OC` [Compound 8, 10-methoxy-9-((3,4,5-trimethoxybenzoyl)oxy)-5,6-dihydro-[1,3]dioxolo[4,5-g]isoquinolino[3,2-a]isoquinolin-7-ium chloride], the 50% inhibitory concentration (IC50) turned out to be 23.9 ± 1.87 µM and the inhibition at 50 µM is 72%.
Taken in the same sequence, the figures for `COc1ccc2cc3[n+](cc2c1OC(=O)c1ccccc1Cl)CCc1cc2c(cc1-3)OCO2` [Compound 10, 9-((2-chlorobenzoyl)oxy)-10-methoxy-5,6-dihydro-[1,3]dioxolo[4,5-g]isoquinolino[3,2-a]isoquinolin-7-ium chloride] were 12.2 ± 0.82 µM and 88.5%.
For `COc1ccc2cc3[n+](cc2c1OC(=O)c1cccc(Cl)c1)CCc1cc2c(cc1-3)OCO2` [Compound 11, 9-((3-chlorobenzoyl)oxy)-10-methoxy-5,6-dihydro-[1,3]dioxolo[4,5-g]isoquinolino[3,2-a]isoquinolin-7-ium chloride], the inhibition at 50 µM was found to be 95.5%. For the same compound, the IC50 (read-out: IC50) is 9.43 ± 0.8 µM.
In the case of `COc1ccc2cc3[n+](cc2c1OC(=O)c1ccc(Cl)cc1)CCc1cc2c(cc1-3)OCO2` [Compound 12, 9-((4-chlorobenzoyl)oxy)-10-methoxy-5,6-dihydro-[1,3]dioxolo[4,5-g]isoquinolino[3,2-a]isoquinolin-7-ium chloride], the IC50 turned out to be 10.6 ± 0.6 µM and the inhibition at 50 µM turned out to be 96.5%.
The like results for `COc1ccc2cc3[n+](cc2c1OC(=O)c1ccccc1F)CCc1cc2c(cc1-3)OCO2` [Compound 13, 9-((2-fluorobenzoyl)oxy)-10-methoxy-5,6-dihydro-[1,3]dioxolo[4,5-g]isoquinolino[3,2-a]isoquinolin-7-ium chloride] were, in that order, 24.9 ± 1.78 µM and 72%.
Taken in the same sequence, the figures for `COc1ccc2cc3[n+](cc2c1OC(=O)c1cccc(F)c1)CCc1cc2c(cc1-3)OCO2` [Compound 14, 9-((3-fluorobenzoyl)oxy)-10-methoxy-5,6-dihydro-[1,3]dioxolo[4,5-g]isoquinolino[3,2-a]isoquinolin-7-ium chloride] were 32.8 ± 1.88 µM and 63%.
For `COc1ccc2cc3[n+](cc2c1OC(=O)c1ccc(F)cc1)CCc1cc2c(cc1-3)OCO2` [Compound 15, 9-((4-fluorobenzoyl)oxy)-10-methoxy-5,6-dihydro-[1,3]dioxolo[4,5-g]isoquinolino[3,2-a]isoquinolin-7-ium chloride], the IC50 came to 21.3 ± 1.97 µM and the inhibition at 50 µM is 73.9%.
Regarding `COc1ccc2cc3[n+](cc2c1OC(=O)c1ccccc1Br)CCc1cc2c(cc1-3)OCO2` [Compound 16, 9-((2-bromobenzoyl)oxy)-10-methoxy-5,6-dihydro-[1,3]dioxolo[4,5-g]isoquinolino[3,2-a]isoquinolin-7-ium chloride], the inhibition at 50 µM turned out to be 95.3%. Also, the IC50 (read-out: IC50) came out at 6.45 ± 0.52 µM.
The like results for `COc1ccc2cc3[n+](cc2c1OC(=O)c1ccccc1I)CCc1cc2c(cc1-3)OCO2` [Compound 17, 9-((2-iodobenzoyl)oxy)-10-methoxy-5,6-dihydro-[1,3]dioxolo[4,5-g]isoquinolino[3,2-a]isoquinolin-7-ium chloride] were, in that order, 94.9% and 9.24 ± 0.5 µM.
`COc1ccc2cc3[n+](cc2c1OC(=O)c1ccccc1C(F)(F)F)CCc1cc2c(cc1-3)OCO2` [Compound 18, 10-methoxy-9-((2-(trifluoromethyl)benzoyl)oxy)-5,6-dihydro-[1,3]dioxolo[4,5-g]isoquinolino[3,2-a]isoquinolin-7-ium chloride]: the 50% inhibitory concentration (IC50) came to 15.7 ± 1.34 µM and the inhibition at 50 µM is 86.1%.
For `COc1ccc2cc3[n+](cc2c1OC(=O)c1ccccc1[N+](=O)[O-])CCc1cc2c(cc1-3)OCO2` [Compound 19, 10-methoxy-9-((2-nitrobenzoyl)oxy)-5,6-dihydro-[1,3]dioxolo[4,5-g]isoquinolino[3,2-a]isoquinolin-7-ium chloride], the 50% inhibitory concentration (IC50) is 10.5 ± 1.03 µM and the inhibition at 50 µM was 81.6%.
The like results for `COc1ccc2cc3[n+](cc2c1OC(=O)c1ccc(C#N)cc1)CCc1cc2c(cc1-3)OCO2` [Compound 20, 9-((4-cyanobenzoyl)oxy)-10-methoxy-5,6-dihydro-[1,3]dioxolo[4,5-g]isoquinolino[3,2-a]isoquinolin-7-ium chloride] were, in that order, 26.5 ± 2.5 µM and 55.6%.
